# Strand notation (5' to 3'): a small letter for the sugar, then the base; units joined by * are phosphorothioate-linked, units joined directly phosphodiester-linked; [ ] holds rarer units or linkages, { } end groups; capitals alone tell only the bases. e = 2'-O-(2-methoxyethyl) (MOE); [5mC] = 5-methylcytosine; d = 2'-deoxy (DNA)
# Legend:
# Format in all cases: cell-based
# human Factor 7 mRNA [1] = assay: Antisense inhibition of human Factor 7 with short (14-mer) oligonucleotides in HepB3 cells, electroporation 1,000 nM; settings: electroporation, 1,000 nM antisense oligonucleotide, approximately 24 hours, Factor 7 mRNA relative to untreated control cells
# Description: Short antisense oligonucleotides (shortmers) were designed to target a Factor 7 nucleic acid. The shortmers in Table 17 were designed as 2-10-2 MOE gapmers. The gapmers are 14 nucleotides in length, wherein the central gap segment is comprised of 10 2′-deoxynucleotides and is flanked on both sides (in the 5′ and 3′ directions) by wings comprising 2 nucleotides each. Each nucleotide in the 5′ wing segment and each nucleotide in the 3′ wing segment has a 2′-MOE modification. The internucleoside linkages throughout each gapmer are phosphorothioate (P═S) linkages. All cytidine residues throughout each gapmer are 5-methylcytidines.
# Shortmers were evaluated for their ability to reduce human Factor 7 mRNA in HepB3 cells and compared with one 5-10-5 chimeric oligonucleotide from Table 16, ISIS 407939. HepB3 cells at a density of 20,000 cells per well in a 96-well plate were transfected using electroporation with 1,000 nM of antisense oligonucleotide. After a treatment period of approximately 24 hours, RNA was isolated from the cells and Factor 7 mRNA levels were measured by real-time RT-PCR, as described herein. Factor 7 mRNA levels were adjusted according to total RNA content as measured by RIBOGREEN®. Results are presented in Table 17 as percent inhibition of Factor 7 mRNA, relative to untreated control cells. ISIS 407939 is the first oligonucleotide in Table 17 to which the shortmers were compared, and is marked by an asterisk (*).
# human Factor 7 mRNA [2] = assay: Antisense inhibition of human Factor 7 mRNA in HepB3 cells, 50 nM antisense oligonucleotide, lipofectin; settings: for % Inhibition: lipofectin, approximately 24 hours
# Procedure, shortened: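 Percent inhibition of Factor 7 mRNA, relative to untreated control, comes from real-time RT-PCR with RIBOGREEN normalization, using primer probe set RTS 2927 in some runs. RNA was taken roughly 24 h after lipofectin delivery of 50 nM oligonucleotide into HepB3 cells.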
# human Factor 7 mRNA [3] = assay: Dose-dependent antisense inhibition of human Factor 7 in HepB3 cells, lipofectin; settings: approximately 16 hours
# Protocol: Cells were plated at a density of 4,000 cells per well and treated with lipofectin reagent with 3.125 nM, 6.25 nM, 12.5 nM, 25 nM, 50 nM, and 100 nM concentrations of antisense oligonucleotide, as indicated in Table 3. After a treatment period of approximately 16 hours, RNA was isolated from the cells and Factor 7 mRNA levels were measured by real-time RT-PCR, as described herein. Human Factor 7 primer probe set RTS 2927 (forward sequence: […], incorporated herein as SEQ ID NO: 164; reverse sequence: […], incorporated herein as SEQ ID NO: 165; probe sequence: TGGGTGGTCTCCGCGGCCX, incorporated herein as SEQ ID NO: 166) was used to measure mRNA levels. Factor 7 mRNA levels were adjusted according to total RNA content as measured by RIBOGREEN®. Results are presented as percent inhibition of Factor 7, relative to untreated control cells.
# Cells were plated at a density of 4,000 cells per well and transfected using lipofectin reagent with 6.25 nM, 12.5 nM, 25.0 nM, 50.0 nM, and 100.0 nM concentrations of antisense oligonucleotide, as indicated in Table 7. After a treatment period of approximately 16 hours, RNA was isolated from the cells and Factor 7 mRNA levels were measured by real-time RT-PCR, as described herein. Human Factor 7 primer probe set RTS 2927 was used to measure mRNA levels. Factor 7 mRNA levels were adjusted according to total RNA content as measured by RIBOGREEN®. Results are presented as percent inhibition of Factor 7, relative to untreated control cells.
# Cells were plated at a density of 4,000 cells per well and transfected using lipofectin reagent with 3.125 nM, 6.25 nM, 12.5 nM, 25 nM, 50 nM, and 100 nM concentrations of antisense oligonucleotide, as specified in Table 14. After a treatment period of approximately 16 hours, RNA was isolated from the cells and Factor 7 mRNA levels were measured by quantitative real-time PCR. Human Factor 7 primer probe set RTS 2927 was used to measure mRNA levels. Factor 7 mRNA levels were adjusted according to total RNA content, as measured by RIBOGREEN®. Results are presented as percent inhibition of Factor 7, relative to untreated control cells.
# [4] = Table 1, 50 nM, relative to untreated control cells
# [5] = 50 nM antisense oligonucleotide, Factor 7 mRNA by real-time RT-PCR (RTS 2927), relative to untreated control
# [6] = oligonucleotides targeted to nucleobases 14707 to 14732 of SEQ ID NO: 1 (Table 11)
Substance,% Inhibition (human Factor 7 mRNA [2]; [5]) [%],"percent inhibition of Factor 7 (human Factor 7 mRNA [3]; Table 7, 6.25 nM) [%]","percent inhibition of Factor 7 (human Factor 7 mRNA [3]; Table 7, 12.5 nM) [%]","percent inhibition of Factor 7 (human Factor 7 mRNA [3]; Table 7, 25.0 nM) [%]","percent inhibition of Factor 7 (human Factor 7 mRNA [3]; Table 7, 50.0 nM) [%]","percent inhibition of Factor 7 (human Factor 7 mRNA [3]; Table 7, 100.0 nM) [%]",further results
435499 (antisense e[5mC]*eT*dG*dG*dG*dA*dG*dA*d[5mC]*d[5mC]*d[5mC]*dT*eG*eG) [compound 435499],,,,,,,% Inhibition (human Factor 7 mRNA [1]): 59%
435692 (antisense e[5mC]*eG*dG*dT*d[5mC]*d[5mC]*dA*dG*d[5mC]*dA*dG*d[5mC]*eT*eG) [compound 435692],,,,,,,% Inhibition (human Factor 7 mRNA [1]): 32%
435760 (antisense eT*e[5mC]*dT*dT*dG*dG*dG*dT*dG*dT*dG*dG*eA*eT) [compound 435760],,,,,,,% Inhibition (human Factor 7 mRNA [1]): 17%
435756 (antisense eT*eG*d[5mC]*d[5mC]*d[5mC]*dA*dG*dG*dA*d[5mC]*dG*dG*e[5mC]*e[5mC]) [compound 435756],,,,,,,% Inhibition (human Factor 7 mRNA [1]): 20%
407641 (antisense e[5mC]*e[5mC]*eT*eG*eA*dG*dG*d[5mC]*d[5mC]*dA*dG*d[5mC]*dA*dG*dA*eT*e[5mC]*eA*e[5mC]*eG) [compound 407641],73,,,,,,"% Inhibition (human Factor 7 mRNA [2]; [4]): 94%; % Inhibition (human Factor 7 mRNA levels) (human Factor 7 mRNA [2]; [6]): 68%; percent inhibition of Factor 7 (human Factor 7 mRNA [3]; Table 3, 3.125 nM): 53%; percent inhibition of Factor 7 (human Factor 7 mRNA [3]; Table 3, 6.25 nM): 53%; percent inhibition of Factor 7 (human Factor 7 mRNA [3]; Table 3, 12.5 nM): 71%; percent inhibition of Factor 7 (human Factor 7 mRNA [3]; Table 3, 25.0 nM): 84%; percent inhibition of Factor 7 (human Factor 7 mRNA [3]; Table 3, 50.0 nM): 88%; percent inhibition of Factor 7 (human Factor 7 mRNA [3]; Table 3, 100.0 nM): 89%"
416446 (antisense eG*eG*eT*e[5mC]*eA*d[5mC]*dT*dG*d[5mC]*dA*dG*dT*dA*d[5mC]*dT*eG*e[5mC]*eT*e[5mC]*eA) [compound 416446],64,25,24,50,69,64,
416508 (antisense e[5mC]*eG*eA*eG*eT*dT*d[5mC]*dT*dG*d[5mC]*dA*dG*dG*dA*dG*e[5mC]*eG*eG*e[5mC]*e[5mC]) [compound 416508],67,42,51,71,79,89,"% Inhibition of human Factor 7 mRNA levels (human Factor 7 mRNA [2]; gapmers targeted to nucleobases 4868 to 4899 of SEQ ID NO: 1, Table 8): 67%"
407606 (antisense e[5mC]*eT*eG*eG*eT*d[5mC]*d[5mC]*dT*dT*dG*d[5mC]*dA*dG*dG*dA*eG*e[5mC]*e[5mC]*e[5mC]*e[5mC]) [compound 407606],57,,,,,,"% Inhibition (human Factor 7 mRNA [2]; [4]): 89%; percent inhibition of Factor 7 (human Factor 7 mRNA [3]; Table 3, 3.125 nM): 20%; percent inhibition of Factor 7 (human Factor 7 mRNA [3]; Table 3, 6.25 nM): 0%; percent inhibition of Factor 7 (human Factor 7 mRNA [3]; Table 3, 12.5 nM): 49%; percent inhibition of Factor 7 (human Factor 7 mRNA [3]; Table 3, 25.0 nM): 55%; percent inhibition of Factor 7 (human Factor 7 mRNA [3]; Table 3, 50.0 nM): 83%; percent inhibition of Factor 7 (human Factor 7 mRNA [3]; Table 3, 100.0 nM): 84%"
407643 (antisense e[5mC]*eA*e[5mC]*eA*e[5mC]*dA*dT*dG*dG*dA*dG*dT*d[5mC]*dA*dG*e[5mC]*eA*eT*e[5mC]*eG) [compound 407643],80,36,49,70,83,93,"% Inhibition (human Factor 7 mRNA [2]; [4]): 84%; % Inhibition (human Factor 7 mRNA levels) (human Factor 7 mRNA [2]; oligonucleotides targeted to nucleobases 15098 to 15122 of SEQ ID NO: 1 (Table 12)): 69%; percent inhibition of Factor 7 (human Factor 7 mRNA [3]; Table 3, 3.125 nM): 16%; percent inhibition of Factor 7 (human Factor 7 mRNA [3]; Table 3, 6.25 nM): 59%; percent inhibition of Factor 7 (human Factor 7 mRNA [3]; Table 3, 12.5 nM): 68%; percent inhibition of Factor 7 (human Factor 7 mRNA [3]; Table 3, 25.0 nM): 76%; percent inhibition of Factor 7 (human Factor 7 mRNA [3]; Table 3, 50.0 nM): 92%; percent inhibition of Factor 7 (human Factor 7 mRNA [3]; Table 3, 100.0 nM): 95%"
416449 (antisense eT*eA*eG*eG*eT*dA*dT*dT*dT*dT*dT*d[5mC]*d[5mC]*dA*d[5mC]*eA*eT*eG*eG*eA) [compound 416449],68,19,33,45,65,85,
407936 (antisense eG*eG*e[5mC]*eA*eT*dT*d[5mC]*dG*d[5mC]*d[5mC]*dA*d[5mC]*d[5mC]*dA*dT*eG*e[5mC]*eA*eT*eG) [compound 407936],,,,,,,"% Inhibition (human Factor 7 mRNA [2]; [4]): 91%; percent inhibition of Factor 7 (human Factor 7 mRNA [3]; Table 3, 3.125 nM): 45%; percent inhibition of Factor 7 (human Factor 7 mRNA [3]; Table 3, 6.25 nM): 77%; percent inhibition of Factor 7 (human Factor 7 mRNA [3]; Table 3, 12.5 nM): 79%; percent inhibition of Factor 7 (human Factor 7 mRNA [3]; Table 3, 25.0 nM): 86%; percent inhibition of Factor 7 (human Factor 7 mRNA [3]; Table 3, 50.0 nM): 91%; percent inhibition of Factor 7 (human Factor 7 mRNA [3]; Table 3, 100.0 nM): 90%"
416472 (antisense e[5mC]*eA*eG*e[5mC]*e[5mC]*dT*dT*dG*dG*d[5mC]*dT*dT*dT*d[5mC]*dT*e[5mC]*eT*e[5mC]*e[5mC]*eA) [compound 416472],76,16,44,64,80,88,
416507 (antisense eG*eG*eT*eT*eA*d[5mC]*dT*dG*dA*dG*d[5mC]*dG*d[5mC]*dG*dG*eA*eA*eG*eA*eA) [compound 416507],73,30,53,70,77,72,
416455 (antisense e[5mC]*eG*e[5mC]*e[5mC]*eG*dG*d[5mC]*dT*d[5mC]*dT*dG*d[5mC]*dT*d[5mC]*dA*eT*e[5mC]*e[5mC]*e[5mC]*e[5mC]) [compound 416455],72,28,44,64,78,87,% Inhibition (human Factor 7 mRNA levels) (human Factor 7 mRNA [2]; oligonucleotides targeted to nucleobases 13760 to 13789 of SEQ ID NO: 1 (Table 10)): 51%
416438 (antisense e[5mC]*eA*eG*eG*eA*dG*d[5mC]*d[5mC]*d[5mC]*d[5mC]*d[5mC]*dA*dT*dT*d[5mC]*eT*eG*eG*e[5mC]*eA) [compound 416438],63,11,33,56,75,82,
407594 (antisense e[5mC]*e[5mC]*eT*eG*e[5mC]*dA*dG*d[5mC]*d[5mC]*dA*dG*dG*d[5mC]*dA*dG*e[5mC]*e[5mC]*e[5mC]*eT*eG) [compound 407594],,,,,,,"% Inhibition (human Factor 7 mRNA [2]; [4]): 87%; percent inhibition of Factor 7 (human Factor 7 mRNA [3]; Table 3, 3.125 nM): 10%; percent inhibition of Factor 7 (human Factor 7 mRNA [3]; Table 3, 6.25 nM): 34%; percent inhibition of Factor 7 (human Factor 7 mRNA [3]; Table 3, 12.5 nM): 63%; percent inhibition of Factor 7 (human Factor 7 mRNA [3]; Table 3, 25.0 nM): 77%; percent inhibition of Factor 7 (human Factor 7 mRNA [3]; Table 3, 50.0 nM): 84%; percent inhibition of Factor 7 (human Factor 7 mRNA [3]; Table 3, 100.0 nM): 80%"
416477 (antisense e[5mC]*eA*eG*e[5mC]*e[5mC]*dT*dG*dA*dG*dG*d[5mC]*d[5mC]*dA*dG*d[5mC]*eA*eG*eA*eT*e[5mC]) [compound 416477],74,21,46,64,78,87,% Inhibition (human Factor 7 mRNA levels) (human Factor 7 mRNA [2]; [6]): 71%
